Test results published in ChEMBL document CHEMBL5727820, “Substituted carbonucleoside derivatives useful as anticancer agents” (2020).
pIC50: −log10 of the molar value. Several values for one entry are separate records, joined by “and”; a condition that tells them apart may be missing. Identical values can stand only once.

Assay: Biochemical Assay: Compounds were solubilized in DMSO and serially diluted, using 3-fold dilutions, into 100% DMSO at a concentration 50-fold greater than the desired assay concentration. Following dilution, 1 ul was added to an empty 96-well microtiter plate. PRMT5/MEP50 protein complex was combined with H4(1-21) peptide ([…]) in PRMT5 assay buffer (50 mM Tris pH 8.5, 50 mM NaCl, 5 mM MgCl2, 1 mM EDTA, 1 mM TCEP) and 44 ul was added to the microtiter plate containing compound. S-Adenosyl-L-methionine (SAM) was prepared by combining 3H labelled SAM with unlabelled SAM in PRMT5 assay buffer such that the final SAM concentration was 10 uM and the specific activity was 0.2 uCi/ul. The reaction was initiated by adding 5 ul of SAM stock to the microtiter plate. The final reaction conditions were 10 nM PRMT5/MEP50 complex, 200 nM peptide and 1 uM SAM. Following a 25 minute incubation at room temperature, the reaction was stopped with the addition of 100 uL of 20% TCA. The 3H-peptide product was captured using a 96-well filter plate (MSIPN4B, Millipore) and washed 5 times with PBS buffer. Scintillation fluid (100 ul) was added to the dried filter plate and counted in a liquid scintillation counter. IC50 values were determined by fitting the data to the standard 4-parameter dose response equation using Pfizer proprietary software.

COC(=O)c1cc(F)ccc1O[C@H]1C[C@@H](n2ccc3c(C)ncnc32)[C@H](O)[C@@H]1O
pIC50: 4.99

O[C@@H]1[C@H](O)[C@H]([C@H](O)c2ccc(F)c(F)c2)C[C@H]1Nc1ncnc2[nH]ccc12
pIC50: 5.24

Cc1cc(N[C@@H]2C[C@H](Oc3ccc(F)cc3C#N)[C@@H](O)[C@H]2O)ncn1
pIC50: < 3.70

Cc1ncnc2c1ccn2[C@@H]1C[C@H]([C@@H](O)c2ccc(F)cc2)[C@@H](O)[C@H]1O
pIC50: 6.54

CN(c1cc(N)ncn1)[C@@H]1C[C@@H]([C@H](O)c2ccc(F)c(F)c2)[C@@H](O)[C@H]1O
pIC50: 4.77

Cc1nc(N)c2c(C)cn([C@@H]3C[C@H](Oc4cc(F)c(F)c5c4CNCC5)[C@@H](O)[C@H]3O)c2n1
pIC50: 9.00

Cc1cc(N[C@H]2C[C@@H](Oc3ccc(F)cc3C#N)[C@H](O)[C@@H]2O)ncn1
pIC50: < 3.70

CN(c1cc(N)ncn1)[C@@H]1C[C@H]([C@@H](O)c2ccc(F)c(F)c2)[C@@H](O)[C@H]1O
pIC50: 6.06

Cc1ncnc2c1ccn2[C@@H]1C[C@H](Oc2ccc(F)c3c2CNC[C@H]3C)[C@@H](O)[C@H]1O
pIC50: 9.00

CO[C@H]1C[C@H](n2ccc3c(C)ncnc32)[C@H](O)[C@@H]1O
pIC50: 5.24

Cc1ncnc2c1ccn2C1C[C@H](Oc2cccc3c2CNCC3)[C@@H](O)[C@H]1O (some centres not stated)
pIC50: 9.00

Cc1ncnc2c1ccn2[C@@H]1C[C@H]([C@H](F)c2ccc(F)cc2)[C@@H](O)[C@H]1O
pIC50: 6.66

Cc1cc(N[C@H]2C[C@@H](Oc3ccccc3C#N)[C@H](O)[C@@H]2O)ncn1
pIC50: < 3.70

O[C@@H]1[C@H](O)[C@@H](Oc2cccc3c2CNCC3)C[C@H]1n1cc(F)c2c(Cl)ncnc21
pIC50: 8.70

Cc1cc(N[C@@H]2C[C@H](Oc3ccccc3C#N)[C@@H](O)[C@H]2O)ncn1
pIC50: < 3.70

Cc1ncnc2c1ccn2[C@H]1C[C@@H](Oc2ccccc2CN)[C@H](O)[C@@H]1O
pIC50: 7.60

Cc1ncnc(N(C)[C@@H]2C[C@@H]([C@H](O)c3ccc(F)c(F)c3)[C@@H](O)[C@H]2O)n1
pIC50: 4.53

Cc1ncnc2c1ccn2[C@@H]1C[C@H](Oc2ccc(F)cc2[C@@H](C)N)[C@@H](O)[C@H]1O
pIC50: 8.70

O[C@@H]1[C@H](O)[C@@H]([C@@H](O)c2ccc(F)c(F)c2)C[C@H]1Nc1ncnc2[nH]ccc12
pIC50: 6.35

CN(c1ncnc(N)n1)[C@@H]1C[C@@H]([C@H](O)c2ccc(F)c(F)c2)[C@@H](O)[C@H]1O
pIC50: 4.80

Cc1nccc(N[C@@H]2C[C@H]([C@H](O)c3ccc(F)c(F)c3)[C@@H](O)[C@H]2O)n1
pIC50: 6.82

Cc1cn([C@@H]2C[C@H](Oc3ccc(F)c4c3CNCC4)[C@@H](O)[C@H]2O)c2ncnc(Cl)c12
pIC50: 9.00

CO[C@@H]1C[C@H](n2ccc3c(C)ncnc32)[C@H](O)[C@@H]1O
pIC50: 5.67

Cc1ncnc2c1ccn2[C@@H]1C[C@H]([C@](F)(CN)c2ccc(F)cc2)[C@@H](O)[C@H]1O
pIC50: 4.72

Cc1ncnc2c1ccn2[C@@H]1C[C@H](Oc2ccccc2CN)[C@@H](O)[C@H]1O
pIC50: 5.98

Nc1ncnc2c1ccn2[C@@H]1C[C@H]([C@@H](O)c2ccc(Cl)c(F)c2)[C@@H](O)[C@H]1O
pIC50: 6.24

Cc1ncnc(N(C)[C@@H]2C[C@H]([C@@H](O)c3ccc(F)c(F)c3)[C@@H](O)[C@H]2O)n1
pIC50: 6.53

Cc1ncnc2c1ccn2[C@@H]1CC([C@](C)(O)c2ccc(F)cc2)[C@@H](O)[C@H]1O (some centres not stated)
pIC50: 4.77

Cc1ncnc2c1ccn2[C@@H]1C[C@H](Oc2cc(C(F)F)c(F)c3c2CNCC3)C(O)=C1O
pIC50: 9.00

Cc1cccc(CC(O)[C@H]2C[C@@H](n3ccc4c(C)ncnc43)[C@H](O)[C@@H]2O)n1 (some centres not stated)
pIC50: < 3.70

Cc1nc(N)nc2c1ccn2[C@@H]1C[C@H]([C@@H](O)c2ccc(F)c(F)c2)[C@@H](O)[C@H]1O
pIC50: 8.30

Cc1nc(N)nc2c1ccn2[C@@H]1C[C@@H]([C@H](O)c2ccc(F)c(F)c2)[C@@H](O)[C@H]1O
pIC50: 6.98

Cc1ncnc2c1ccn2[C@@H]1CC([C@@](C)(O)c2ccc(F)cc2)[C@@H](O)[C@H]1O (some centres not stated)
pIC50: 7.19

CN(c1ccncn1)[C@@H]1C[C@@H]([C@H](O)c2ccc(F)c(F)c2)[C@@H](O)[C@H]1O
pIC50: 4.80

Cc1ncnc2c1ccn2[C@@H]1C[C@H](Oc2ccc(F)cc2[C@H](C)N)[C@@H](O)[C@H]1O
pIC50: 6.91

Cc1ncnc2c1ccn2[C@@H]1C[C@@H]([C@H](CN)c2ccc(F)cc2)[C@@H](O)[C@H]1O
pIC50: 6.04

CN(c1ncnc(N)n1)[C@@H]1C[C@H]([C@@H](O)c2ccc(F)c(F)c2)[C@@H](O)[C@H]1O
pIC50: 6.58

Nc1ncnc2c1c(F)cn2[C@@H]1C[C@H](Oc2cccc3c2CNCC3)[C@@H](O)[C@H]1O
pIC50: 8.10 and 7.55

N#Cc1cccc2c(N[C@@H]3C[C@H](C(O)c4ccc(F)c(F)c4)[C@@H](O)[C@H]3O)ncnc12 (some centres not stated)
pIC50: < 3.70

Cc1cc(N[C@@H]2C[C@H]([C@@H](O)c3ccc(F)c(F)c3)[C@@H](O)[C@H]2O)ncn1
pIC50: 4.23

N#Cc1cccc2c(N[C@H]3C[C@H](C(O)c4ccc(F)c(F)c4)[C@@H](O)[C@H]3O)ncnc12 (some centres not stated)
pIC50: < 3.70

Cc1cc(N[C@@H]2C[C@H]([C@H](O)c3ccc(F)c(F)c3)[C@@H](O)[C@H]2O)ncn1
pIC50: 5.45

CN(c1ccncn1)[C@@H]1C[C@H]([C@@H](O)c2ccc(F)c(F)c2)[C@@H](O)[C@H]1O
pIC50: 6.33

Cc1ncnc2c1ccn2[C@@H]1C[C@H]([C@@H](CN)c2ccc(F)cc2)[C@@H](O)[C@H]1O
pIC50: 6.17

Cc1ncnc2c1ccn2[C@@H]1C[C@H]([C@@H](F)c2ccc(F)cc2)[C@@H](O)[C@H]1O
pIC50: 8.52

Nc1ncnc2c1ccn2[C@@H]1C[C@@H]([C@H](O)c2ccc(Cl)c(F)c2)[C@@H](O)[C@H]1O
pIC50: 7.15

Cc1ncnc2c1ccn2[C@@H]1C[C@H](Oc2ccc(F)c3c2CNC[C@@H]3C)[C@@H](O)[C@H]1O
pIC50: 8.70
